Results published in patent publication US20250313549A1, “HERBICIDAL DERIVATIVES” (SYNGENTA CROP PROTECTION AG, priority 2021, published 2025).

What was measured:
Format in all cases: in vivo
[1] = test system: Echinochloa crus-galli (ECHCG); assay: Post-emergence test, herbicidal damage; settings: sprayed after 8 days cultivation, 1000 g/ha, evaluated after 13 days
Method: (§1) Seeds of a variety of test species are sown in standard soil in pots (Amaranthus retoflexus (AMARE), Echinochloa crus-galli (ECHCG), Amaranthus palmeri (AMAPA), Setaria faberi (SETFA), Zea mays (ZEAMX), Ipomoea hederacea (IPOHE)). After 8 days cultivation under controlled conditions in a glasshouse (at 24° C./16° C., day/night; 14 hours light; 65% humidity), the plants are sprayed with an aqueous spray solution derived from the formulation of the technical active ingredient in acetone/water (50:50) solution containing 0.5% Tween 20 (polyoxyethylene sorbitan monolaurate, CAS RN 9005-64-5). Compounds are applied at 1000 g/ha unless otherwise stated. The test plants are then grown in a glasshouse under controlled conditions in a glasshouse (at 24° C./16° C., day/night; 14 hours light; 65% humidity) and watered twice daily. After 13 days the test is evaluated for the percentage damage caused to the plant. The biological activities are shown in the following table on a five-point scale (5=81-100%; 4=61-80%; 3=41-60%; 2=21-40%; 1=10-20%; 0=0%; -=not tested).

[2] = test system: Ipomoea hederacea (IPOHE); assay: Post-emergence test, herbicidal damage; settings: sprayed after 8 days cultivation, 1000 g/ha, evaluated after 13 days
Method: as §1

[3] = test system: Amaranthus palmeri (AMAPA); assay: Post-emergence test, herbicidal damage; settings: sprayed after 8 days cultivation, 1000 g/ha, evaluated after 13 days
Method: as §1

Setaria faberi (SETFA) = assay: Post-emergence test, herbicidal damage; settings: sprayed after 8 days cultivation, 1000 g/ha, evaluated after 13 days
Method: as §1

[4] = test system: Amaranthus retoflexus (AMARE); assay: Post-emergence test, herbicidal damage; settings: sprayed after 8 days cultivation, 1000 g/ha, evaluated after 13 days
Method: as §1

[5] = test system: Amaranthus retoflexus (AMARE); assay: Pre-emergence test, herbicidal damage; settings: 1000 g/ha, evaluated after 13 days
[6] = test system: Ipomoea hederacea (IPOHE); assay: Pre-emergence test, herbicidal damage; settings: 1000 g/ha, evaluated after 13 days
Zea mays (ZEAMX) [7] = assay: Pre-emergence test, herbicidal damage; settings: 1000 g/ha, evaluated after 13 days
[8] = test system: Echinochloa crus-galli (ECHCG); assay: Pre-emergence test, herbicidal damage; settings: 1000 g/ha, evaluated after 13 days
[9] = test system: Amaranthus palmeri (AMAPA); assay: Pre-emergence test, herbicidal damage; settings: 1000 g/ha, evaluated after 13 days
Zea mays (ZEAMX) [10] = assay: Post-emergence test, herbicidal damage; settings: sprayed after 8 days cultivation, 1000 g/ha, evaluated after 13 days
Method: as §1

| SMILES | percentage damage caused to the plant, ECHCG [1] | percentage damage caused to the plant, IPOHE [2] | percentage damage caused to the plant, AMAPA [3] | percentage damage caused to the plant, SETFA (Setaria faberi (SETFA)) | percentage damage caused to the plant, AMARE [4] | percentage damage caused to the plant, AMARE [5] | percentage damage caused to the plant, IPOHE [6] | percentage damage caused to the plant, ZEAMX (Zea mays (ZEAMX) [7]) | percentage damage caused to the plant, ECHCG [8] | percentage damage caused to the plant, AMAPA [9] | percentage damage caused to the plant, ZEAMX (Zea mays (ZEAMX) [10]) |
| --- | --- | --- | --- | --- | --- | --- | --- | --- | --- | --- | --- |
| CCOC(=O)c1nn(-c2ccnc(OC(F)F)c2)c2cccc(C(C)=O)c2c1=O [Compound 40, ethyl 5-acetyl-1-[2-(difluoromethoxy)-4-pyridyl]-4-oxo-cinnoline-3-carboxylate] | 4 (4=61-80%) | 1 (1=10-20%) | 0 (0=0%) | 1 (1=10-20%) | 1 (1=10-20%) | 0 (0=0%) | 0 (0=0%) | 0 (0=0%) | 3 (3=41-60%) | 0 (0=0%) | – |
| CCOC(=O)c1nn(-c2ccnc(OC(F)F)c2)c2cccc(Br)c2c1=O [Compound 38, ethyl 5-bromo-1-[2-(difluoromethoxy)-4-pyridyl]-4-oxo-cinnoline-3-carboxylate] | 0 (0=0%) | 2 (2=21-40%) | 1 (1=10-20%) | 1 (1=10-20%) | 2 (2=21-40%) | – | – | – | – | – | – |
| CCOC(=O)c1nn(-c2ccc(C(F)F)nc2)c2cccc(Br)c2c1=O [Compound 30, ethyl 5-bromo-1-[6-(difluoromethyl)-3-pyridyl]-4-oxo-cinnoline-3-carboxylate] | 4 (4=61-80%) | 2 (2=21-40%) | 1 (1=10-20%) | 0 (0=0%) | 1 (1=10-20%) | 0 (0=0%) | 0 (0=0%) | 0 (0=0%) | 2 (2=21-40%) | 0 (0=0%) | – |
| CCOC(=O)c1nn(-c2ccc(OC(F)F)nc2)c2cccc(C#N)c2c1=O [Compound 35, ethyl 5-cyano-1-[6-(difluoromethoxy)-3-pyridyl]-4-oxo-cinnoline-3-carboxylate] | 0 (0=0%) | 1 (1=10-20%) | 1 (1=10-20%) | 0 (0=0%) | 1 (1=10-20%) | – | – | – | – | – | – |
| CCOC(=O)c1nn(-c2ccnc(Cl)c2)c2cccc(Br)c2c1=O [Compound 3, ethyl 5-bromo-1-(2-chloro-4-pyridyl)-4-oxo-cinnoline-3-carboxylate] | 2 (2=21-40%) | 0 (0=0%) | 1 (1=10-20%) | 0 (0=0%) | 2 (2=21-40%) | – | – | – | – | – | 0 (0=0%) |
| CCOC(=O)c1nn(-c2ccc(F)nc2)c2cccc(C#N)c2c1=O [Compound 11, ethyl 5-cyano-1-(6-fluoro-3-pyridyl)-4-oxo-cinnoline-3-carboxylate] | 2 (2=21-40%) | 0 (0=0%) | 0 (0=0%) | 0 (0=0%) | 0 (0=0%) | – | – | – | – | – | 1 (1=10-20%) |
| CCOC(=O)c1nn(-c2ncc(Cl)cc2C#N)c2cccc(Br)c2c1=O [Compound 33, ethyl 5-bromo-1-(5-chloro-3-cyano-2-pyridyl)-4-oxo-cinnoline-3-carboxylate] | 1 (1=10-20%) | 1 (1=10-20%) | – | 1 (1=10-20%) | 0 (0=0%) | – | – | – | – | – | 0 (0=0%) |
| CCOC(=O)c1nn(-c2ccnc(OC(F)F)c2)c2cccc(/C(C)=N\OC)c2c1=O [Compound 41, ethyl 1-[2-(difluoromethoxy)-4-pyridyl]-5-[(Z)—N-methoxy-C-methyl-carbonimidoyl]-4-oxo-cinnoline-3-carboxylate] | 2 (2=21-40%) | 1 (1=10-20%) | 1 (1=10-20%) | 1 (1=10-20%) | 1 (1=10-20%) | 0 (0=0%) | 0 (0=0%) | 1 (1=10-20%) | 4 (4=61-80%) | 0 (0=0%) | – |
| CCOC(=O)c1nn(-c2cnc3c(c2)OC(F)(F)O3)c2cccc(Br)c2c1=O [Compound 24, ethyl 5-bromo-1-(2,2-difluoro-[1,3]dioxolo[4,5-b]pyridin-6-yl)-4-oxo-cinnoline-3-carboxylate] | 2 (2=21-40%) | 0 (0=0%) | 0 (0=0%) | 2 (2=21-40%) | 0 (0=0%) | – | – | – | – | – | 1 (1=10-20%) |
| CCOC(=O)c1nn(-c2cnc(Cl)c(C)c2)c2cccc(Br)c2c1=O [Compound 26, ethyl 5-bromo-1-(6-chloro-5-methyl-3-pyridyl)-4-oxo-cinnoline-3-carboxylate] | 0 (0=0%) | 2 (2=21-40%) | 1 (1=10-20%) | 1 (1=10-20%) | 2 (2=21-40%) | 1 (1=10-20%) | 0 (0=0%) | 0 (0=0%) | 0 (0=0%) | 1 (1=10-20%) | – |
| CCOC(=O)c1nn(-c2cnc(OC)c(F)c2)c2cccc(Br)c2c1=O [Compound 22, ethyl 5-bromo-1-(5-fluoro-6-methoxy-3-pyridyl)-4-oxo-cinnoline-3-carbox-ylate] | 0 (0=0%) | 0 (0=0%) | 0 (0=0%) | 0 (0=0%) | 0 (0=0%) | – | – | – | – | – | 0 (0=0%) |
| CCOC(=O)c1nn(-c2cnc(OC)c(C)c2)c2cccc(Br)c2c1=O [Compound 29, ethyl 5-bromo-1-(6-methoxy-5-methyl-3-pyridyl)-4-oxo-cinnoline-3-carboxylate] | 1 (1=10-20%) | 2 (2=21-40%) | 1 (1=10-20%) | 0 (0=0%) | 2 (2=21-40%) | – | – | – | – | – | – |
| CCOC(=O)c1nn(-c2ccc(OC)nc2)c2cccc(Br)c2c1=O [Compound 4, ethyl 5-bromo-1-(6-methoxy-3-pyridyl)-4-oxo-cinnoline-3-carboxylate] | 0 (0=0%) | 0 (0=0%) | 1 (1=10-20%) | 0 (0=0%) | 2 (2=21-40%) | – | – | – | – | – | 0 (0=0%) |
| CCOC(=O)c1nn(-c2cncnc2)c2cccc(Br)c2c1=O [Compound 8, ethyl 5-bromo-4-oxo-1-pyrimidin-5-yl-cinnoline-3-carboxylate] | 0 (0=0%) | 0 (0=0%) | 0 (0=0%) | 0 (0=0%) | 0 (0=0%) | – | – | – | – | – | 0 (0=0%) |
| CCOC(=O)c1nn(-c2ccnc(OC)c2)c2cccc(Br)c2c1=O [Compound 9, ethyl 5-bromo-1-(2-methoxy-4-pyridyl)-4-oxo-cinnoline-3-carboxylate] | 1 (1=10-20%) | 0 (0=0%) | 1 (1=10-20%) | 0 (0=0%) | 1 (1=10-20%) | – | – | – | – | – | 1 (1=10-20%) |
| CCOC(=O)c1nn(-c2cncc(Cl)c2)c2cccc(Br)c2c1=O [Compound 5, ethyl 5-bromo-1-(5-chloro-3-pyridyl)-4-oxo-cinnoline-3-carboxylate] | 2 (2=21-40%) | 1 (1=10-20%) | 1 (1=10-20%) | 2 (2=21-40%) | 1 (1=10-20%) | – | – | – | – | – | 1 (1=10-20%) |
